Patent US20170166598A1, “HETEROARYL COMPOUNDS FOR KINASE INHIBITION” (ARIAD PHARMACEUTICALS, INC., priority 2014, published 2017)

Key:
Assay type in all cases: cell-based
[1] = target: T1, human EGFR exon 20 insertion NPG (H773_V774insNPG) (Homo sapiens, UniProt P00533, INS772GNP); test: Ba/F3-EGFR-Exon20-NPG cell anti-proliferative assay (CellTiter 96 MTS, 72 h); conditions: Ba/F3-EGFR-Exon20-NPG cells
T1 construct: expressed in transfected cells; host or cells: Ba/F3 (murine pro-B) cells transduced with lentivirus from pLVX-IRES puro
Method: An expression vector, pLVX-IRES puro (Clontech) coding for human EGFR exon 20 insertions NPG (H773_V774insNPG) or ASV (V769_D770insASV), was transfected into HEK293 cells by the Trans-Lentiviral ORF Packaging System (Thermo Scientific), to produce virus encoding EGFR exon 20 insertions. Ba/F3 (DSMZ) cells maintained in RPMI 1640 medium supplemented with 10% fetal bovine serum, 200 μM L-glutamine/l 200 μg/mL penicillin/200 μg/mL streptomycin (Life Technology) and 10 ng/mL IL-3 (R&D system), were infected by EGFR Exon20 virus and subsequently selected by puromycin (Life Technology) selection and IL-3 depletion. […] The anti-proliferative activity of compounds were determined as follows: BaF3-EGFR-Exon20 cells (NPG or ASV) seeded in 96 well plates (2500 cells/well) were treated with test compound (dissolved in DMSO) at a series of concentrations (4-fold dilution, top concentration: 10,000 nM). The plates were incubated for 72 h in a 37° C. incubator with 5% CO2, and the number of viable cells in each well were measured indirectly by CellTiter 96® Aqueous One Solution Cell Proliferation Assay (Promega) This assay is a colorimetric method for determining the number of viable cells through measurement of their metabolic activity by detection of enzymatic conversion of tetrazolium salts into blue formazan derivatives. Reagent (20 μL) was added into each well, and the plates were returned to the incubator for 2 h. The absorbance in each well was then measured at 490 nm using an Envision plate reader (Perkin Elmer).

[2] = target: T2, human EGFR E746-A750 deletion and T790M Mutation (Homo sapiens, UniProt P00533, DEL746-750/T790M); test: Ba/F3-EGFR-Del/T790M cell anti-proliferative assay (CellTiter 96 MTS, 72 h); conditions: Ba/F3-EGFR-Del/T790M cells
T2 construct: expressed in transfected cells; host or cells: Ba/F3 (murine pro-B) cells transduced with lentivirus from pLVX-IRES puro
Method: An expression vector, pLVX-IRES puro (Clontech) coding for human EGFR E746-A750 deletion and T790M Mutation, was transfected into HEK293 cells by the Trans-Lentiviral ORF Packaging System (Thermo Scientific), to produce virus encoding EGFR exon 19 deletion and T790M mutations. Ba/F3 (DSMZ) cells maintained in RPMI 1640 medium supplemented with 10% fetal bovine serum, 200 μM L-glutamine/200 μg/mL penicillin/200 μg/mL streptomycin (Life Technology) and 10 ng/mL IL-3 (R&D system), were infected by EGFR E746-A750 deletion and T790M Mutation virus and subsequently selected by puromycin (Life Technology) selection and IL-3 depletion. […] The anti-proliferative activity of compounds was determined as follows: BaF3-EGFR-Del/T790M cells seeded in 96 well plates (2500 cells/well) were treated with test compound (dissolved in DMSO) at a series of concentrations (4-fold dilution, top concentration: 10,000 nM). The plates were incubated for 72 h in a 37° C. incubator with 5% CO2, and the number of viable cells in each well were measured indirectly by CellTiter 96® Aqueous One Solution Cell Proliferation Assay (Promega; this assay is a colorimetric method for determining the number of viable cells through measurement of their metabolic activity by detection of enzymatic conversion of tetrazolium salts into blue formazan derivatives). Reagent (20 μL) was added into each well, and the plates were returned to the incubator for 2 h. The absorbance in each well was then measured at 490 nm using an Envision plate reader (Perkin Elmer).

[3] = target: T3, Her2 exon 20 YVMA insertion (A775_G776ins YVMA) (Homo sapiens, UniProt P04626, INS775YVMA); test: Ba/F3-Her2 Exon20 YVMA cell anti-proliferative assay (CellTiter 96 MTS, 72 h); conditions: Ba/F3-Her2 Exon20 YVMA cells
T3 construct: expressed in transfected cells; host or cells: Ba/F3 (murine pro-B) cells transduced with lentivirus from pLVX-IRES puro
Excerpt: A compound's ability in selectively inhibiting Her2 exon 20 YVMA insertion mutations can be assessed using Ba/F3 cells, a murine pro-B cell line, which have been transduced with Her2 Exon20 YVMA insertions. An expression vector, pLVX-IRES puro (Clontech) coding for […] (A775_G776ins YVMA), was transfected into HEK293 cells by the Trans-Lentiviral ORF Packaging System (Thermo Scientific), to produce virus encoding EGFR exon 20 insertions. Ba/F3 (DSMZ) cells maintained in RPMI 1640 medium supplemented with 10% fetal bovine serum, 200 μM L-glutamine/200 μg/mL penicillin/200 μg/mL streptomycin (Life Technology) and 10 ng/mL IL-3 (R&D system), were infected by EGFR Exon20 virus and subsequently selected by puromycin (Life Technology) selection and IL-3 depletion. Ba/F3 cells expressing Her2 Exon20 YVMA insertions (named Ba/F3-Her2 Exon20 YVMA) can proliferate in the absence of IL-3. The anti-proliferative activity of compounds was determined as follows: BaF3-Her2 Exon20 YVMA cells seeded in 96 well plates (2500 cells/well) were treated with test compound (dissolved in DMSO) at a series of concentrations (4-fold dilution, top concentration: 10,000 nM). The plates were incubated for 72 h in a 37° C. incubator with 5% CO2, and the number of viable cells in each well were measured indirectly by CellTiter 96@ Aqueous One Solution Cell Proliferation Assay (Promega; this assay is a colorimetric method for determining the number of viable cells through measurement of their metabolic activity by detection of enzymatic conversion of tetrazolium salts into blue formazan derivatives). Reagent (20 μL) was added into each well, and the plates were returned to the incubator for 2 h. The absorbance in each well was then measured at 490 nm using an Envision plate reader (Perkin Elmer).

T1 sequence (P00533 with tags, fused parts or gaps INS772GNP): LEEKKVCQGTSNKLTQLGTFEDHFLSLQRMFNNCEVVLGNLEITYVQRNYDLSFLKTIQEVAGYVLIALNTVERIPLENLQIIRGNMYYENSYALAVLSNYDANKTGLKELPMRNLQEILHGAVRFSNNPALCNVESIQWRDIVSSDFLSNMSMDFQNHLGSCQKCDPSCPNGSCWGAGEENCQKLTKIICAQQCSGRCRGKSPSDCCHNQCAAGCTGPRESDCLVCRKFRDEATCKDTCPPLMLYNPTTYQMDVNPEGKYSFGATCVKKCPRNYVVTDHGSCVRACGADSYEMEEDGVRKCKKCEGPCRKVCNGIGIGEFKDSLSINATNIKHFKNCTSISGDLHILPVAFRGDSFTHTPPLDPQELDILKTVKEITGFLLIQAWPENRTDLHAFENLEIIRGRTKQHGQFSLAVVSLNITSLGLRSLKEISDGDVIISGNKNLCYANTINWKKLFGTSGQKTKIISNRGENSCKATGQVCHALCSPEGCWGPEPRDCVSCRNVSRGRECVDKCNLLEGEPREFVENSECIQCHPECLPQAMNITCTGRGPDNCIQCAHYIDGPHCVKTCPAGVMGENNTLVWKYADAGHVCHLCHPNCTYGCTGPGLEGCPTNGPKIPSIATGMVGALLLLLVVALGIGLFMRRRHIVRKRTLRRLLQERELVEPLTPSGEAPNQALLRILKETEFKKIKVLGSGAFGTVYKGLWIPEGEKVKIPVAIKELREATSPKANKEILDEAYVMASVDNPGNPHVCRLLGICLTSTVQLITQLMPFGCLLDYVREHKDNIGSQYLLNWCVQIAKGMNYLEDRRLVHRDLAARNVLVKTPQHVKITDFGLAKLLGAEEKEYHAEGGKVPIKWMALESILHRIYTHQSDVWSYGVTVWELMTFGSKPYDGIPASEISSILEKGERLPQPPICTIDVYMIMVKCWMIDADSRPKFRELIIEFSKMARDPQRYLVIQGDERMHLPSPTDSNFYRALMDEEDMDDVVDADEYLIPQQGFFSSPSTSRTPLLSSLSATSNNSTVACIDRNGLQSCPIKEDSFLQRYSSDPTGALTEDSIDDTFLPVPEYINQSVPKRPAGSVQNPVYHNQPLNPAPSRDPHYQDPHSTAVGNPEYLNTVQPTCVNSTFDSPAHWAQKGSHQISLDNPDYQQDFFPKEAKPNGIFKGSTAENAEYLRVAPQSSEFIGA
T3 sequence (P04626 with tags, fused parts or gaps INS775YVMA): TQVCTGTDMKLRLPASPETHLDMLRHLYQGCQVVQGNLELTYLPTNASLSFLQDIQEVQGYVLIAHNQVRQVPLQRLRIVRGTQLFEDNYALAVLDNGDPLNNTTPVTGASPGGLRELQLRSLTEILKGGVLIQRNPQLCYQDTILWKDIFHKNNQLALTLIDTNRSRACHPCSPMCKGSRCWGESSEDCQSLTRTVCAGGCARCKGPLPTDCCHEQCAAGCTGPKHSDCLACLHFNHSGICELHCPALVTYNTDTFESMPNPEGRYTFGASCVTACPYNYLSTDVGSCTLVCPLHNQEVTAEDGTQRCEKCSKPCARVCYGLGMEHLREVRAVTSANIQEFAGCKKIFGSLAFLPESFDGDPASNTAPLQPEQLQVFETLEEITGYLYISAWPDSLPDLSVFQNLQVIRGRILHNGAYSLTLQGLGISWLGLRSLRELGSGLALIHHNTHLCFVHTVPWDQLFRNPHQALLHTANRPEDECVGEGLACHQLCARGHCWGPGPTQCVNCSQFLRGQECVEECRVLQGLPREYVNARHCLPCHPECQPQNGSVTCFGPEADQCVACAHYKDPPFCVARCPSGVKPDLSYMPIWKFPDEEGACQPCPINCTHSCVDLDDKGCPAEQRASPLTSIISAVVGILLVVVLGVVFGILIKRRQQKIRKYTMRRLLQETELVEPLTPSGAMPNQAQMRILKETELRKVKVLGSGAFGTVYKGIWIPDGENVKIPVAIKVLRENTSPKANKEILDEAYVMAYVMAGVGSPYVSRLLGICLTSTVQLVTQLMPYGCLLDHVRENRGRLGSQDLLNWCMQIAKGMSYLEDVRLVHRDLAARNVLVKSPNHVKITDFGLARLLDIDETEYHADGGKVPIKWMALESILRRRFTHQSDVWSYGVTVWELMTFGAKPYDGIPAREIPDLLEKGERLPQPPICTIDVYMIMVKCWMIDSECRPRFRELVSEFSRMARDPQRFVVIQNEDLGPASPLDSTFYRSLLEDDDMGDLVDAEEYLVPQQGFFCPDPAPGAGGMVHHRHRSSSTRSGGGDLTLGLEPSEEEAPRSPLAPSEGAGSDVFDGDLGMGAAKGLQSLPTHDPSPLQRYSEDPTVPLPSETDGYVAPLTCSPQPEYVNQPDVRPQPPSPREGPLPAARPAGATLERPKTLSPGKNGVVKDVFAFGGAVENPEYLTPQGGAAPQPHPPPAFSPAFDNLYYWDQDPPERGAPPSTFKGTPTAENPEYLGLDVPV
T2 sequence (P00533 with tags, fused parts or gaps DEL746-750/T790M): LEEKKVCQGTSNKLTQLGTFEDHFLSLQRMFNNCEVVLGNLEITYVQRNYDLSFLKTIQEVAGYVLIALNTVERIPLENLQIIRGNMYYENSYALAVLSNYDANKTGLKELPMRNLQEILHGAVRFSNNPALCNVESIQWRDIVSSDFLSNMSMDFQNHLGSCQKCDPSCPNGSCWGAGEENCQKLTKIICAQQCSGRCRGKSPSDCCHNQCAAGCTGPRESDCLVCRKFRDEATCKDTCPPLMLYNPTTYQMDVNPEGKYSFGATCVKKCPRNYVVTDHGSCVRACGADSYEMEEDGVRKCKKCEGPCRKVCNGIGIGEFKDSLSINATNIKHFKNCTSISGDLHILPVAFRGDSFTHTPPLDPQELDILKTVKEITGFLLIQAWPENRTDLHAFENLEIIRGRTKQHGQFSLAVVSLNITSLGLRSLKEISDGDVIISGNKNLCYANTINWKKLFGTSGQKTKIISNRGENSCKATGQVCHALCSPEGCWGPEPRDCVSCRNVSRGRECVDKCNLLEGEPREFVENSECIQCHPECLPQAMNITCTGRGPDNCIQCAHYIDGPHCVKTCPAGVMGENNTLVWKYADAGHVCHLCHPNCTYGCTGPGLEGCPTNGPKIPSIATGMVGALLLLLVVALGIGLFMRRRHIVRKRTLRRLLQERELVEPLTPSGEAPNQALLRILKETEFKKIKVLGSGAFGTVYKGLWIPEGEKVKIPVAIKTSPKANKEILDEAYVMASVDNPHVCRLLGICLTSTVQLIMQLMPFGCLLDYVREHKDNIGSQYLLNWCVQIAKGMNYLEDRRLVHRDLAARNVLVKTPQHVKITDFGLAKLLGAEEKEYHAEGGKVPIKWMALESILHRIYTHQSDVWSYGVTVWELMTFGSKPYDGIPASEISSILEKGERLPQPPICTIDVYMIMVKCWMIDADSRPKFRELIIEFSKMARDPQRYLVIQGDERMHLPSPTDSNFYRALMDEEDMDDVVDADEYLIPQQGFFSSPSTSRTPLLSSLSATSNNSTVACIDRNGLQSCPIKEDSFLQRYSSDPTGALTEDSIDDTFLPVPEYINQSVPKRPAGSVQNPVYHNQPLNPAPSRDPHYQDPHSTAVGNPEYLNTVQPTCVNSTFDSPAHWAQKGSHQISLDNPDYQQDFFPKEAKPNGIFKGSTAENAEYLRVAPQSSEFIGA

SMILES | IC50 [1] [nM] | IC50 [3] [nM] | EGFR exon 19 deletion and exon 20 T790M mutation IC50 [2]
C=CC(=O)Nc1cc(Nc2ncc(Cl)c(-c3cn4c5c(cccc35)CCC4)n2)c(OC)cc1N(C)CCN1CCCC1 [Example 24, N-(5-((5-chloro-4-(5,6-dihydro-4H-pyrrolo[3,2,1-ij]quinolin-1-yl)pyrimidin-2-yl)amino)-4-methoxy-2-(methyl(2-(pyrrolidin-1-yl)ethyl)amino)phenyl)acrylamide] | < 100 | 100 to 500 | A (IC50 value for the indicated mutant below about 100 nM)
C=CC(=O)Nc1cc(Nc2ncc(Cl)c(-c3cn4c5c(cccc35)CCC4)n2)c(OC)cc1OCCN1CCOCC1 [Example 22, N-(5-((5-chloro-4-(5,6-dihydro-4H-pyrrolo[3,2,1-ij]quinolin-1-yl)pyrimidin-2-yl)amino)-4-methoxy-2-(2-morpholinoethoxy)phenyl)acrylamide] | 100 to 500 | > 1000 | A (IC50 value for the indicated mutant below about 100 nM)
C=CC(=O)Nc1cc(Nc2ncc(Cl)c(-c3cn4c5c(cccc35)CCC4)n2)c(OC)cc1OCCN1CCN(C)CC1 [Example 21, N-(5-((5-chloro-4-(5,6-dihydro-4H-pyrrolo[3,2,1-ij]quinolin-1-yl)pyrimidin-2-yl)amino)-4-methoxy-2-(2-(4-methylpiperazin-1-yl)ethoxy)phenyl)acrylamide] | 100 to 500 | > 1000 | A (IC50 value for the indicated mutant below about 100 nM)
C=CC(=O)Nc1cc(Nc2ncc(CC)c(-c3cn4c5c(cccc35)CCC4)n2)c(OC)cc1N1CCN(C(C)=O)CC1 [Example 3, N-(2-(4-acetylpiperazin-1-yl)-5-((4-(5,6-dihydro-4H-pyrrolo[3,2,1-ij]quinolin-1-yl)-5-ethylpyrimidin-2-yl)amino)-4-methoxyphenyl)acrylamide] | > 1000 | > 1000 | B (IC50 value for the indicated mutant between about 100 to about 500 nM)
C=CC(=O)Nc1cc(Nc2ncc(Cl)c(-c3cn4c5c(cccc35)CCC4)n2)c(OC)cc1OCCN1CCCC1 [Example 20] | 100 to 500 | 500 to 1000 | A (IC50 value for the indicated mutant below about 100 nM)
C=CC(=O)Nc1cc(Nc2ncc(Cl)c(-c3cn4c5c(cccc35)CCC4)n2)c(C)cc1N(C)CCN(C)C [Example 13, N-(5-((5-chloro-4-(5,6-dihydro-4H-pyrrolo[3,2,1-ij]quinolin-1-yl)pyrimidin-2-yl)amino)-2-((2-(dimethylamino)ethyl)(methyl)amino)-4-methylphenyl)acrylamide] | < 100 | 100 to 500 | A (IC50 value for the indicated mutant below about 100 nM)

Second part, led by results:

IC50 [1] [nM] | IC50 [3] [nM] | SMILES | EGFR exon 19 deletion and exon 20 T790M mutation IC50 [2]
< 100 | < 100 | C=CC(=O)Nc1cc(Nc2ncc(C(=C)C)c(-c3cn4c5c(cccc35)CCC4)n2)c(OC)cc1N(C)CCN(C)C [Example 29, N-(5-((4-(5,6-dihydro-4H-pyrrolo[3,2,1-ij]quinolin-1-yl)-5-(prop-1-en-2-yl)pyrimidin-2-yl)amino)-2-((2-(dimethylamino)ethyl)(methyl)amino)-4-methoxyphenyl)acrylamide] | A (IC50 value for the indicated mutant below about 100 nM)
< 100 | 500 to 1000 | C=CC(=O)Nc1cc(Nc2ncc(C3CC3)c(-c3cn4c5c(cccc35)CCC4)n2)c(OC)cc1N(C)CCN(C)C [Example 28, N-(5-((5-cyclopropyl-4-(5,6-dihydro-4H-pyrrolo[3,2,1-ij]quinolin-1-yl)pyrimidin-2-yl)amino)-2-((2-(dimethylamino)ethyl)(methyl)amino)-4-methoxyphenyl)acrylamide] | A (IC50 value for the indicated mutant below about 100 nM)
< 100 | 100 to 500 | C=CC(=O)Nc1cc(Nc2ncc(Cl)c(-c3cn4c5c(cccc35)OCC4)n2)c(C)cc1OCCN1CCCC1 [Example 78, N-(5-((5-chloro-4-(2,3-dihydro-[1,4]oxazino[2,3,4-hi]indol-6-yl)pyrimidin-2-yl)amino)-4-methyl-2-(2-(pyrrolidin-1-yl)ethoxy)phenyl)acrylamide] | A (IC50 value for the indicated mutant below about 100 nM)
< 100 | 100 to 500 | C=CC(=O)Nc1cc(Nc2ncc(Cl)c(-c3cn4c5c(cccc35)OCC4)n2)c(C)cc1N(C)CCN1CCCC1 [Example 79, N-(5-((5-chloro-4-(2,3-dihydro-[1,4]oxazino[2,3,4-hi]indol-6-yl)pyrimidin-2-yl)amino)-4-methyl-2-(methyl(2-(pyrrolidin-1-yl)ethyl)amino)phenyl)acrylamide] | A (IC50 value for the indicated mutant below about 100 nM)
100 to 500 | 500 to 1000 | C=CC(=O)Nc1cc(Nc2ncc(C(C)C)c(-c3cn4c5c(cccc35)CCC4)n2)c(OC)cc1N(C)CCN(C)C [Example 30, N-(5-((4-(5,6-dihydro-4H-pyrrolo[3,2,1-ij]quinolin-1-yl)-5-isopropylpyrimidin-2-yl)amino)-2-((2-(dimethylamino)ethyl)(methyl)amino)-4-methoxyphenyl)acrylamide] | A (IC50 value for the indicated mutant below about 100 nM)
100 to 500 | > 1000 | C=CC(=O)Nc1cc(Nc2ncc(Cl)c(-c3cn4c5c(cccc35)CCC4)n2)c(OC)cc1N(C)CCN1CCN(C)CC1 [Example 25, N-(5-((5-chloro-4-(5,6-dihydro-4H-pyrrolo[3,2,1-ij]quinolin-1-yl)pyrimidin-2-yl)amino)-4-methoxy-2-(methyl(2-(4-methylpiperazin-1-yl)ethyl)amino)phenyl)acrylamide] | A (IC50 value for the indicated mutant below about 100 nM)
– | 100 to 500 | C=CC(=O)Nc1cc(Nc2nccc(-c3cn4c5c(cccc35)OCC4)n2)c(OC)cc1N(C)CCN(C)C [Example 77, N-(5-((4-(2,3-dihydro-[1,4]oxazino[2,3,4-hi]indol-6-yl)pyrimidin-2-yl)amino)-2-((2-(dimethylamino)ethyl)(methyl)amino)-4-methoxyphenyl)acrylamide] | –
